Starred links: 1 amine or outer side, 2 acyl side, 3 side chain; linkers in the order of their positions; H or OH if unused. Positions of bridges follow the written chain, without caps; N, C: chain ends. Non-standard residues stand in square brackets, D forms with d. Residues, ends and D or L forms follow the SMILES beside them. *: point of attachment. X25 = CC(=O)N[C@H](CCC(=O)O)C(=O)Nc1cccc(C[C@@H](N[*:1])C(=O)[*:2])c1; X32 = CC(=O)N[C@H](CC(=O)O)C(=O)Nc1cccc(C[C@@H](N[*:1])C(=O)[*:2])c1; X33 = CC(=O)N[C@@H](CC(=O)Nc1cccc(C[C@H](N[*:1])C(=O)[*:2])c1)C(=O)O; X9 = O=C(CC1NC(=O)NC1=O)Nc1cccc(C[C@H](N[*:1])C(=O)[*:2])c1; DOTA = O=C(O)CN1CCN(CC(=O)O)CCN(CC(=O)*)CCN(CC(=O)O)CC1; X15 = O=C(O)COCC(=O)Nc1cccc(C[C@H](N[*:1])C(=O)[*:2])c1; X6 = O=C(O)CCC(=O)Nc1cccc(C[C@H](N[*:1])C(=O)[*:2])c1; Benzoyl(4-SO2NH2) = NS(=O)(=O)c1ccc(C(=O)*)cc1; Propanoyl(3-SO2NH2) = NS(=O)(=O)CCC(=O)*; Phe(4-NH2) = Nc1ccc(C[C@H](N)C(=O)O)cc1; mXylylene = c1cc(C[*:1])cc(C[*:2])c1; X2 = O=C(CN1CCC(N[*:1])CC1)[*:2]; X29 = c1cc2cn[nH]c2cc1CN*; Dap = NC[C@H](N)C(=O)O

The target of assay [1] is T1, CAIX-expressing human HT-29 colorectal cancer cells (Homo sapiens, UniProt Q16790).
T1 construct: CAIX-expressing human HT-29 colorectal cancer cells; host or cells: HT-29 human colorectal cancer cells
Nature of the assay: FACS binding assay (IC50 determination, competition with tracer 3BP-2776 or 3BP-4149). The note with it: FACS binding assay, HT-29 cells, competition with tracer 3BP-4149 (3 nM, Cy5-labeled), 4° C., 1 hour; read-out: pIC50 category (activity) (converted). An outline of the steps: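 HT-29 cells in FACS buffer (PBS, 1% FCS) at 500.000 cells/ml were exposed to compounds competing with a labelled tracer, with biotinylated compounds detected by 1 μg/mL APC-streptavidin for 30 min on ice. APC/Cy5 median fluorescence was read by flow cytometry and IC50 derived by 4PL fit.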

Assay [2] concerns the target T2, human carbonic anhydrase IX (hCAIX-Fc) (Homo sapiens, UniProt Q16790).
T2 construct: purchased SinoBliological (Sino Biological) 10107-H02H
In words: Surface plasmon resonance assay with hCAIX-Fc. Type of assay: binding. Conditions: 25° C.; for t1/2 category (activity): SPR dissociation half-life, hCAIX-Fc; for Kd: SPR, hCAIX-Fc captured, read-out: pKD category (activity) (converted). On the technique in general: In SPR one partner is held on a chip, and binding of the other changes the refractive index at the surface.

Take `CC(=O)N[C@H](CCC(=O)O)C(=O)Nc1cccc(C[C@H]2NC(=O)[C@H](CC(=O)O)NC(=O)[C@H]3CCCN3C(=O)[C@H](CCC(=O)O)NC(=O)[C@@H](NC(=O)[C@H](Cc3ccc(O)cc3)NC(=O)[C@@H](NC(=O)CN3CCC(NC(=O)CN4CCN(CC(=O)O)CCN(CC(=O)O)CCN(CC(=O)O)CC4)CC3)C(C)C)CSCc3cccc(c3)CSC[C@@H](C(N)=O)NC(=O)[C@H](CO)NC(=O)[C@H](Cc3c[nH]c4ccccc34)NC(=O)[C@H]([C@@H](C)O)NC(=O)[C@H](CC(C)C)NC2=O)c1` [3BP-4362] ({DOTA}-[X2]VYCE[dP]D[X25]LTWSC-NH2; linker 4-13 via mXylylene): the IC50 in assay [1] is 0.01 to 0.0794 µM. For the same compound, in assay [2], the “t1/2 category (activity)” value was “B (t1/2 between 5.1 and 15.0 minutes)”; the Kd is below 0.01 µM.

For the compound `CC(=O)N[C@@H](CC(=O)Nc1cccc(C[C@@H]2NC(=O)[C@H](CC(=O)O)NC(=O)[C@H]3CCCN3C(=O)[C@H](CCC(=O)O)NC(=O)[C@@H](NC(=O)[C@H](Cc3ccc(O)cc3)NC(=O)[C@@H](NC(=O)CN3CCC(NC(=O)CN4CCN(CC(=O)O)CCN(CC(=O)O)CCN(CC(=O)O)CC4)CC3)C(C)C)CSCc3cccc(c3)CSC[C@@H](C(N)=O)NC(=O)[C@H](CO)NC(=O)[C@H](Cc3c[nH]c4ccccc34)NC(=O)[C@H]([C@@H](C)O)NC(=O)[C@H](CC(C)C)NC2=O)c1)C(=O)O` [3BP-4363] ({DOTA}-[X2]VYCE[dP]D[X33]LTWSC-NH2; linker 4-13 via mXylylene), the IC50 in assay [1] is 0.01 to 0.0794 µM. For the same compound, in assay [2], the “t1/2 category (activity)” value is “B (t1/2 between 5.1 and 15.0 minutes)”; the Kd is below 0.01 µM.

On to `CC(=O)N[C@H](CC(=O)O)C(=O)Nc1cccc(C[C@H]2NC(=O)[C@H](CC(=O)O)NC(=O)[C@H]3CCCN3C(=O)[C@H](CCC(=O)O)NC(=O)[C@@H](NC(=O)[C@H](Cc3ccc(O)cc3)NC(=O)[C@@H](NC(=O)CN3CCC(NC(=O)CN4CCN(CC(=O)O)CCN(CC(=O)O)CCN(CC(=O)O)CC4)CC3)C(C)C)CSCc3cccc(c3)CSC[C@@H](C(N)=O)NC(=O)[C@H](CO)NC(=O)[C@H](Cc3c[nH]c4ccccc34)NC(=O)[C@H]([C@@H](C)O)NC(=O)[C@H](CC(C)C)NC2=O)c1` [3BP-4364] ({DOTA}-[X2]VYCE[dP]D[X32]LTWSC-NH2; linker 4-13 via mXylylene), for which the IC50 in assay [1] is 0.01 to 0.0794 µM. Moreover, in assay [2], the “t1/2 category (activity)” value was “B (t1/2 between 5.1 and 15.0 minutes)”; the Kd is below 0.01 µM.

Regarding `CC(C)C[C@@H]1NC(=O)[C@H](Cc2cccc(NC(=O)COCC(=O)O)c2)NC(=O)[C@H](CC(=O)O)NC(=O)[C@H]2CCCN2C(=O)[C@H](CCC(=O)O)NC(=O)[C@@H](NC(=O)[C@H](Cc2ccc(O)cc2)NC(=O)[C@@H](NC(=O)CN2CCC(NC(=O)CN3CCN(CC(=O)O)CCN(CC(=O)O)CCN(CC(=O)O)CC3)CC2)C(C)C)CSCc2cccc(c2)CSC[C@@H](C(N)=O)NC(=O)[C@H](CO)NC(=O)[C@H](Cc2c[nH]c3ccccc23)NC(=O)[C@H]([C@@H](C)O)NC1=O` [3BP-4368] ({DOTA}-[X2]VYCE[dP]D[X15]LTWSC-NH2; linker 4-13 via mXylylene), the IC50 in assay [1] was 0.01 to 0.0794 µM. In assay [2], the “t1/2 category (activity)” value was “C (t1/2 between 2.1 and 5.0 minutes)”; the Kd was below 0.01 µM.

Regarding `CC(C)C[C@@H]1NC(=O)[C@H](Cc2cccc(NC(=O)CC3NC(=O)NC3=O)c2)NC(=O)[C@H](CC(=O)O)NC(=O)[C@H]2CCCN2C(=O)[C@H](CCC(=O)O)NC(=O)[C@@H](NC(=O)[C@H](Cc2ccc(O)cc2)NC(=O)[C@@H](NC(=O)CN2CCC(NC(=O)CN3CCN(CC(=O)O)CCN(CC(=O)O)CCN(CC(=O)O)CC3)CC2)C(C)C)CSCc2cccc(c2)CSC[C@@H](C(N)=O)NC(=O)[C@H](CO)NC(=O)[C@H](Cc2c[nH]c3ccccc23)NC(=O)[C@H]([C@@H](C)O)NC1=O` (stereo partly drawn) [3BP-4371] ({DOTA}-[X2]VYCE[dP]D[X9]LTWSC-NH2; linker 4-13 via mXylylene), in assay [1], the IC50 was 0.01 to 0.0794 µM. Besides, in assay [2], the “t1/2 category (activity)” value was “C (t1/2 between 2.1 and 5.0 minutes)”; the Kd is below 0.01 µM.

As for `CC(C)C[C@@H]1NC(=O)[C@H](Cc2cccc(NC(=O)CCC(=O)O)c2)NC(=O)[C@H](CC(=O)O)NC(=O)[C@H]2CCCN2C(=O)[C@H](CCC(=O)O)NC(=O)[C@@H]2CSCc3cccc(c3)CSC[C@@H](C(N)=O)NC(=O)[C@H](CNC(=O)C[C@H](NC(=O)[C@@H](NC(=O)CN3CCC(NC(=O)CN4CCN(CC(=O)O)CCN(CC(=O)O)CCN(CC(=O)O)CC4)CC3)C(C)C)C(=O)N2)NC(=O)[C@H](Cc2c[nH]c3ccccc23)NC(=O)[C@H]([C@@H](C)O)NC1=O` [3BP-4377] ({DOTA}-[X2]VDCE[dP]D[X6]LTW[Dap]C-NH2; lactam 3-12; linker 4-13 via mXylylene), in assay [1], the IC50 is below 0.01 µM. For the same compound, in assay [2], the “t1/2 category (activity)” value is given as “A (t1/2>15.0 minutes)” and the Kd was below 0.01 µM.

As to `CC(C)C[C@@H]1NC(=O)[C@H](Cc2c[nH]c3ccccc23)NC(=O)[C@H](CCC(=O)NCc2ccc3cn[nH]c3c2)NC(=O)[C@H]2CCCN2C(=O)[C@H](CCC(=O)O)NC(=O)[C@@H](NC(=O)[C@H](Cc2ccc(O)cc2)NC(=O)[C@@H](NC(=O)CN2CCC(NC(=O)CN3CCN(CC(=O)O)CCN(CC(=O)O)CCN(CC(=O)O)CC3)CC2)C(C)C)CSCc2cccc(c2)CSC[C@@H](C(N)=O)NC(=O)[C@H](CO)NC(=O)[C@H](Cc2c[nH]c3ccccc23)NC(=O)[C@H]([C@@H](C)O)NC1=O` [3BP-4387] ({DOTA}-[X2]VYCE[dP]E(X29)WLTWSC-NH2; linker 4-13 via mXylylene), the IC50 in assay [1] was 0.01 to 0.0794 µM. For the same compound, in assay [2], the “t1/2 category (activity)” value was “A (t1/2>15.0 minutes)” and the Kd is below 0.01 µM.

With `CC(C)C[C@@H]1NC(=O)[C@H](Cc2ccc(NC(=O)c3ccc(S(N)(=O)=O)cc3)cc2)NC(=O)[C@H](CC(=O)O)NC(=O)[C@H]2CCCN2C(=O)[C@H](CCC(=O)O)NC(=O)[C@@H](NC(=O)[C@H](Cc2ccc(O)cc2)NC(=O)[C@@H](NC(=O)CN2CCC(NC(=O)CN3CCN(CC(=O)O)CCN(CC(=O)O)CCN(CC(=O)O)CC3)CC2)C(C)C)CSCc2cccc(c2)CSC[C@@H](C(N)=O)NC(=O)[C@H](CO)NC(=O)[C@H](Cc2c[nH]c3ccccc23)NC(=O)[C@H]([C@@H](C)O)NC1=O` [3BP-4398] ({DOTA}-[X2]VYCE[dP]D[Phe(4-NH2)](Benzoyl(4-SO2NH2))LTWSC-NH2; linker 4-13 via mXylylene), the IC50 in assay [1] is 0.01 to 0.0794 µM. For the same compound, in assay [2], the “t1/2 category (activity)” value is “C (t1/2 between 2.1 and 5.0 minutes)”; the Kd was below 0.01 µM.

Take `CC(C)C[C@@H]1NC(=O)[C@H](Cc2ccc(NC(=O)CCS(N)(=O)=O)cc2)NC(=O)[C@H](CC(=O)O)NC(=O)[C@H]2CCCN2C(=O)[C@H](CCC(=O)O)NC(=O)[C@@H](NC(=O)[C@H](Cc2ccc(O)cc2)NC(=O)[C@@H](NC(=O)CN2CCC(NC(=O)CN3CCN(CC(=O)O)CCN(CC(=O)O)CCN(CC(=O)O)CC3)CC2)C(C)C)CSCc2cccc(c2)CSC[C@@H](C(N)=O)NC(=O)[C@H](CO)NC(=O)[C@H](Cc2c[nH]c3ccccc23)NC(=O)[C@H]([C@@H](C)O)NC1=O` [3BP-4400] ({DOTA}-[X2]VYCE[dP]D[Phe(4-NH2)](Propanoyl(3-SO2NH2))LTWSC-NH2; linker 4-13 via mXylylene): the IC50 in assay [1] is below 0.01 µM. For the same compound, in assay [2], the “t1/2 category (activity)” value is recorded as “A (t1/2>15.0 minutes)” and the Kd is below 0.01 µM.

(Values after patent publication US20250339569A1, “CARBONIC ANHYDRASE IX LIGANDS” (priority 2021, published 2025).)
